First: CCCc1c(C(OC)OC)cc([N+](=O)[O-])c(OC)c1OC
Second: COCC(C#N)=Cc1cc(OC)c(OC)c(OC)c1
The melting point of the first is lower: 52.1 to 54 °C for the first, 79 to 81 °C for the second.

First: Cn1ccnc1Sc1ccc(Nc2c(C#N)cnc3cc(Br)ccc23)cc1Cl
Second: CCn1c(=O)c(-c2c(Cl)cccc2Cl)cc2cnc(Nc3ccc(OC)c(OC)c3)nc21
The melting point of the first is higher: 258 to 261 °C for the first, 221 to 223 °C for the second.

Compared with `CC(C)c1ccc(N(CC(=O)N2CCOCC2)C(=O)C2CCCc3ccccc32)cc1` (stereo unspecified), `CN1CCC(Nc2ccccc2C(=O)c2ccccc2Cl)CC1` is lower in melting point: 180 °C for the first, 128 to 129 °C for the second.

Compared with `COc1ccc(S(=O)(=O)Oc2ccn3nc(-c4ccccc4)c(-c4ccc(=O)n(C(C)C)n4)c3c2)cc1`, `CCCn1nc(-c2ccc(OC)cc2)c2cccc(-c3ccccc3)c21` is lower in melting point: 155 to 157 °C for the first, 58 to 59 °C for the second.

Compared with `CCCC(=O)C1c2cccc(OC(=O)C(C)(C)C)c2C(=O)c2c(OC(=O)C(C)(C)C)cccc21`, `CC(=O)N(C(C)C(=O)NC(C)C(=O)OC(C)(C)C)C(CO)c1ccccc1` (stereo unspecified) is lower in melting point: 120 °C for the first, 38 to 40 °C for the second.

Compared with `O=Cc1nn(-c2ccc(O)cc2)c2c1CCCC2Cc1cccc2ccccc12` (stereo unspecified), `CN1CCCCC1CCc1ccccc1NC(=O)c1ccc([N+](=O)[O-])cc1` (stereo unspecified) is lower in melting point: greater than 260 °C for the first, 162 to 164 °C for the second.

First: Nc1ccc(C(=O)Nc2ccc(-c3c[nH]c(=O)cn3)cc2)cc1
Second: COC(=O)c1ccc2c(c1)CN(C(=O)c1ccc(-c3ccccc3)cc1)C2
The melting point of the first is higher: greater than 300 °C for the first, 172 to 180 °C for the second.

Compared with `O=C(O)CCCc1cc2nc(Cl)ccc2n1S(=O)(=O)c1ccc(Cl)cc1`, `O=C(O)CSC(CCCCNS(=O)(=O)c1ccc(Cl)cc1)CCCc1cccnc1` (stereo unspecified) is lower in melting point: 174 °C for the first, 78 to 80 °C for the second.

First: Cc1cc(F)ccc1-c1nc(N[C@@H](C)CO)nc2c1ccc(=O)n2-c1ccccc1F
Second: C[C@@H](Nc1ncnc2[nH]c(-c3ccc(CO)cc3)cc12)c1ccccc1
The melting point of the first is lower: 114 to 120 °C for the first, greater than 300 °C for the second.

First: CCOC(=O)C1=Cc2cc(OC(F)(F)F)ccc2NC1C(F)(F)F (stereo unspecified)
Second: CCOC(=O)c1nc(N)nc(N)c1-c1ccc(Cl)cc1Cl
The melting point of the first is lower: 123 to 125 °C for the first, 178 °C for the second.

Compared with `N#CC1=C(C#N)NC(c2ccccc2)C(O)=N1` (stereo unspecified), `CSc1cc2n(c(=O)n1)C(c1ccccc1)N=C2` (stereo unspecified) is lower in melting point: 222 to 224 °C for the first, 198 to 199 °C for the second.

Compared with `O=c1[nH]c2ncc(-c3ccc(O)cc3)nc2n1C1CCOCC1`, `CCN(CC)c1ccc(-c2cnc3[nH]cc(C(=O)C4(C)CCCCC4)c3n2)cc1` is lower in melting point: 382 to 383 °C for the first, 211 to 213 °C for the second.

Compared with `CN(C)CCCC(=O)Cc1ccc2c(c1)Cc1cccnc1O2`, `COc1cc2ccc(C(=O)CCC(=O)O)cc2cc1OC` is higher in melting point: 76 to 78 °C for the first, 215 to 229 °C for the second.

First: Cn1cnc(S(=O)(=O)N2CCSCC2)c1
Second: CCN1CCN(Cc2ccc(-c3nc4cc(OC)cc(OC)c4c(=O)[nH]3)cc2)CC1
The melting point of the first is lower: 154 to 155 °C for the first, 278 to 280 °C for the second.

Compared with `Cc1ccc(NCCCCOc2ccc3ccccc3c2)cc1`, `N#Cc1cccc(N2CCc3cc(OCc4ccccc4)ccc32)c1` is higher in melting point: 98 °C for the first, 102 to 104 °C for the second.

First: CCNC(=O)c1ccc(N2CCN(Cc3ccc4c(c3)NC(=O)C(C)O4)CC2)c(Cl)c1 (stereo unspecified)
Second: COc1cc(C(C)=O)ccc1OCCCCN1CCN(c2n[nH]c3cc(F)ccc23)CC1
The melting point of the first is higher: 239 to 243 °C for the first, 156 to 158 °C for the second.

First: CN(C)C(=O)c1cc(N(C)C)cc(C(=O)N(C)C)n1
Second: CC(=O)c1cc2c(C(C)=O)c(OCC(O)CNC(C)(C)C)ccc2o1 (stereo unspecified)
The melting point of the first is higher: 175 to 178 °C for the first, 122 °C for the second.

First: CC(C)CS(=O)(=O)c1ccc(F)c(C#Cc2cc(Cl)ccc2OCC(=O)O)c1
Second: CCOC(=O)CCc1cc(-c2cc3ccccc3c(=O)o2)ccc1O
The melting point of the first is lower: 141 to 143 °C for the first, 179 to 180 °C for the second.

First: COc1ccc(C(O)CN)cc1OC (stereo unspecified)
Second: C#Cc1ccc(C#N)cc1OC
The melting point of the first is lower: 80 to 81 °C for the first, 105 to 106 °C for the second.

Compared with `COc1ccc(-c2cc(=O)c3c(O)cc(OCC4=COC(C)(C)O4)cc3o2)cc1OC`, `COc1cc(Nc2nccc(-c3ccc(NCCCNC(C)C)nc3)n2)cc(OC)c1OC` is lower in melting point: 166 °C for the first, 124 to 125 °C for the second.

Compared with `NC(=O)c1cc(F)cc(-c2ccc(F)c3cc(Cc4cccc(C(F)(F)F)c4)sc23)c1`, `N#CCNC(COCc1cc(C(F)(F)F)cc(C(F)(F)F)c1)C(c1ccccc1)c1ccccc1` (stereo unspecified) is lower in melting point: 161 to 162 °C for the first, 78 to 80 °C for the second.

First: CC(=O)c1ccc(Oc2cccnc2)cc1
Second: CC(=O)c1ccc(OCCCCl)c(C)c1
The melting point of the first is higher: 45 to 50 °C for the first, 41.5 to 42.5 °C for the second.

First: O=C1CCc2cc(Cl)cc(Cl)c2C1
Second: COc1ccc(N2C(=O)CN(C(C)C)C2=O)c(F)c1
The melting point of the first is higher: 90 to 92 °C for the first, 88 to 90 °C for the second.

First: CN(C)CCNc1ccc(NCCN(C)C)c2c1C(=O)c1ccc(O)c(O)c1C2=O
Second: CN(C)C1=CC(=NS(=O)(=O)c2cccs2)c2ccccc2C1=O
The melting point of the first is lower: 133 to 135 °C for the first, 183 to 185 °C for the second.

Compared with `C=CCOc1ncnc2nc[nH]c12`, `C=CCc1cccnc1C(=O)OC` is lower in melting point: 199 to 200 °C for the first, 116 to 119 °C for the second.

First: CCN(c1ccc(C)c2cc(-c3ncc(CCl)s3)[nH]c12)S(=O)(=O)c1cccs1
Second: O=C1NC(Cc2cccs2)C(=O)NC1Cc1ccc(OCc2ccccc2)cn1 (stereo unspecified)
The melting point of the first is lower: 177 to 178 °C for the first, 201 to 203 °C for the second.

Compared with `O=C(O)c1ncccc1Cl`, `COC(=O)c1occc1NC(N)=O` is higher in melting point: 126 to 128 °C for the first, 208 °C for the second.

First: Nc1cn(-c2cncc(F)c2)nc1Br
Second: O=[N+]([O-])c1cc(-c2ccncc2)ccc1O
The melting point of the first is lower: 164 to 165 °C for the first, 210 to 212 °C for the second.

First: CCCCCSC1=C(SCCCCC)SC(=C2SC3=C(CN(S(=O)(=O)c4ccc(C)cc4)C3)S2)S1
Second: CCCCCC(CO)n1cnc(NC(=O)c2ccccc2C(=O)O)c1 (stereo unspecified)
The melting point of the first is higher: 136 to 137 °C for the first, 99 to 101 °C for the second.

Compared with `O=[N+]([O-])c1ccccc1-c1oc2ccc(CBr)cc2c1Br`, `COc1cc(C(O)c2ccccc2[N+](=O)[O-])c(Br)cn1` (stereo unspecified) is higher in melting point: 118 °C for the first, 128 to 131 °C for the second.

First: C#CCn1ccc(CO)c1C#N
Second: CCOC(=O)C(C(=O)OCC)c1c(Br)cnc2c([N+](=O)[O-])cccc12
The melting point of the first is lower: 65 °C for the first, 94 to 95 °C for the second.

First: O=C(c1ccncc1)N1CCN(Cc2ccc3c(c2)-c2[nH]nc(-c4ccsc4)c2C3)CC1
Second: COc1ccc(-c2cccc3c2C2(COc4cc5c(cc42)OCCO5)C(=O)N3Cc2ccccn2)cc1 (stereo unspecified)
The melting point of the first is lower: 168 to 170 °C for the first, 205 to 206 °C for the second.

First: COCC1CN(c2ccc(C3CCC(OC(C)=O)CC3)cc2)C(=O)O1 (racemic)
Second: OC1CC2(CCN(C3CCC3)CC2)Oc2ccccc21 (stereo unspecified)
The melting point of the first is lower: 78 to 79 °C for the first, 211 to 213 °C for the second.

First: CC(C)CC(NC(=O)C(NC(=O)OCc1ccccc1)C(C)C)C(=O)NC(CCCCNC(=O)OCc1ccccc1)C(=O)Oc1cccc2ccccc12 (stereo unspecified)
Second: CCOC(=O)c1nnc2ccc(NCCCN3CCC(OC(c4ccccc4)c4ccccc4)CC3)nn12
The melting point of the first is higher: 171 to 174 °C for the first, 129 to 133 °C for the second.

Compared with `CCC12CCC3C4CCC(=O)C=C4CCC3C1CCC2OCCN(C)C` (stereo unspecified), `CN(C)c1ccc(NC(=O)N(C[C@H]2CC[C@@H](CN(C(=O)Nc3ccc(N(C)C)cc3)C3CCCCCCC3)CC2)C2CCCCCCC2)cc1` is higher in melting point: 87 to 88 °C for the first, 197 to 200 °C for the second.

Compound `CC12CC3(C)CC(c4ccc(C(=O)O)cc4)(C1)CC(c1ccc(C(=O)O)cc1)(C2)C3` has a melting point of 252 to 255 °C.

— a melting point compilation (Tetko et al.; mined from patent text by program, amines drawn as free bases though some values may be those of a salt)
